Experimental data taken from article PMC12232896 (Angewandte Chemie (International Ed. in English), 2025).

Experiments:
P. berghei = system: P. berghei; set-up: method as in earlier work; details: 4 × 30 mg/kg; cited from earlier work
PvPI4Kβ = PvPI4Kβ (Plasmodium vivax, UniProt A5KB26); set-up: method as in PMID 33590753, PMID 28446690, PMID 30249687; details: same assay; cited from earlier work
Pf3D7 strain = details: cited from earlier work
HsMAP4K4 = molecular target: T1, HsMAP4K4 (Homo sapiens, UniProt O95819); test: HsMAP4K4 ADP-Glo kinase assay; assay type: biochemical; details: reference compound, 10 µM ATP
T1 construct: purchased Reaction Biology
T1 sequence (O95819 whole entry): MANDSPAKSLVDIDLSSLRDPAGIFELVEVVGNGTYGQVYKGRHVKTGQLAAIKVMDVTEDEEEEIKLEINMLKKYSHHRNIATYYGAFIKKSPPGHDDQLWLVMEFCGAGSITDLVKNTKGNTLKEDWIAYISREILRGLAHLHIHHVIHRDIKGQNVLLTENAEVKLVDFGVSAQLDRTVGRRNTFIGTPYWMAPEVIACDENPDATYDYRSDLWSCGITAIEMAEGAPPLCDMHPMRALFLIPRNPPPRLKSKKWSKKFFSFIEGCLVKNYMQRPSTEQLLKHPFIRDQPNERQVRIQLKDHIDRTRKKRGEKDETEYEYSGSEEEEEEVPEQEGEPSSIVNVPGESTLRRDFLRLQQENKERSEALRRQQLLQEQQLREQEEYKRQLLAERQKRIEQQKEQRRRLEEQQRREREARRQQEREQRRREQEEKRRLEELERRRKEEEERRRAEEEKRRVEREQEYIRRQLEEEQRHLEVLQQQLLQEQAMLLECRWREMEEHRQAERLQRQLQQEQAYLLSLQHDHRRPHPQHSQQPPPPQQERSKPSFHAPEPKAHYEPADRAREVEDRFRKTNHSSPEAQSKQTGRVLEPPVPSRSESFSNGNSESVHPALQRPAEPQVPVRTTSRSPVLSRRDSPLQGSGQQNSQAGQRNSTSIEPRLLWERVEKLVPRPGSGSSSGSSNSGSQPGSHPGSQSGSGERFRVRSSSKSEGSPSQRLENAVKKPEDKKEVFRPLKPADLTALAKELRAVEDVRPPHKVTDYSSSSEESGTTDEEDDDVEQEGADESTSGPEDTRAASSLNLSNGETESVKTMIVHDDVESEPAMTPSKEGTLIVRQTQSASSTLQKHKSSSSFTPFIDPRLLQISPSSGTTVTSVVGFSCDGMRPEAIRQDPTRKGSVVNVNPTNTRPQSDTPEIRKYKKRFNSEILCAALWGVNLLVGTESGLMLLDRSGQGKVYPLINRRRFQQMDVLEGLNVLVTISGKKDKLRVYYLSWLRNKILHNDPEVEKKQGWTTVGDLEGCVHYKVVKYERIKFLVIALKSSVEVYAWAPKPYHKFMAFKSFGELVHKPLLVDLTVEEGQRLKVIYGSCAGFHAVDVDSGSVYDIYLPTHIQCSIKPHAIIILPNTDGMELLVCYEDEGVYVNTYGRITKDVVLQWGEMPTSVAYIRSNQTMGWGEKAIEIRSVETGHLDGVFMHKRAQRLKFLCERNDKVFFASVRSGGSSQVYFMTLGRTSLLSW

HsMINK1 = molecular target: T2, HsMINK1 (Homo sapiens, UniProt Q8N4C8); test: HsMINK1 ADP-Glo kinase assay; assay type: biochemical; details: reference compound, 10 µM ATP
T2 construct: purchased Reaction Biology
T2 sequence (Q8N4C8 whole entry): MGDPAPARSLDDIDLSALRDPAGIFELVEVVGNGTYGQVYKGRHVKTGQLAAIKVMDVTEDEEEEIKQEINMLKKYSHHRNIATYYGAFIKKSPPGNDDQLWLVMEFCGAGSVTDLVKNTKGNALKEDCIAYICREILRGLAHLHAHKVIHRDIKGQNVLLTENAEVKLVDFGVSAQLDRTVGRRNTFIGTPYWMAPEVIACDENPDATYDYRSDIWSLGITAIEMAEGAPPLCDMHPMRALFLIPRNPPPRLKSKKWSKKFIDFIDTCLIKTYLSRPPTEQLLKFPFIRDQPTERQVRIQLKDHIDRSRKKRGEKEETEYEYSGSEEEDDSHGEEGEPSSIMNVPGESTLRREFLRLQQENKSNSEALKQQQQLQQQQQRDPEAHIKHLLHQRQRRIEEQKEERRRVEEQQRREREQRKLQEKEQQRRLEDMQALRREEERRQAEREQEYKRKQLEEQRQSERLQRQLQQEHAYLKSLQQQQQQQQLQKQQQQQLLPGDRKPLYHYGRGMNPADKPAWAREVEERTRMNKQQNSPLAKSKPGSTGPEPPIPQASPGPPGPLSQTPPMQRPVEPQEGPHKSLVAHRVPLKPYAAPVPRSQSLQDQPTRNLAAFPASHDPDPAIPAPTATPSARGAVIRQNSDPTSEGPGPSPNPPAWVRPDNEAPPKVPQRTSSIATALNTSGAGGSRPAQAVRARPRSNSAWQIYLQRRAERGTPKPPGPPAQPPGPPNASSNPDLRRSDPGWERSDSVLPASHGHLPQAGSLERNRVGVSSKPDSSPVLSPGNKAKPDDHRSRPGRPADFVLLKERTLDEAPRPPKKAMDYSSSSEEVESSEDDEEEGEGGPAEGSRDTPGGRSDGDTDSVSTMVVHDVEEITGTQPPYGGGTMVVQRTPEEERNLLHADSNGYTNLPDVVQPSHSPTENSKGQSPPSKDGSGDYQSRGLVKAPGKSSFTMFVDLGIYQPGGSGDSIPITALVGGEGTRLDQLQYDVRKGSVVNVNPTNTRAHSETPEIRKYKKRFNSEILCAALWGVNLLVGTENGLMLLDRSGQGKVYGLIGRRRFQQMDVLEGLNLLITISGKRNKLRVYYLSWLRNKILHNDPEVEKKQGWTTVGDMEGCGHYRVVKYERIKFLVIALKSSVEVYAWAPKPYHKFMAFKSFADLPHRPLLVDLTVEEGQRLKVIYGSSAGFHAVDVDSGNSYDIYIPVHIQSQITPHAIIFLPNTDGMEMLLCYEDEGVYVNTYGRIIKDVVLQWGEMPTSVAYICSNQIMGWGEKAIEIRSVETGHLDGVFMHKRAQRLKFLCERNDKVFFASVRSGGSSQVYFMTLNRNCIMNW

PvPI4Kβ, sequence (A5KB26 entry or part of it): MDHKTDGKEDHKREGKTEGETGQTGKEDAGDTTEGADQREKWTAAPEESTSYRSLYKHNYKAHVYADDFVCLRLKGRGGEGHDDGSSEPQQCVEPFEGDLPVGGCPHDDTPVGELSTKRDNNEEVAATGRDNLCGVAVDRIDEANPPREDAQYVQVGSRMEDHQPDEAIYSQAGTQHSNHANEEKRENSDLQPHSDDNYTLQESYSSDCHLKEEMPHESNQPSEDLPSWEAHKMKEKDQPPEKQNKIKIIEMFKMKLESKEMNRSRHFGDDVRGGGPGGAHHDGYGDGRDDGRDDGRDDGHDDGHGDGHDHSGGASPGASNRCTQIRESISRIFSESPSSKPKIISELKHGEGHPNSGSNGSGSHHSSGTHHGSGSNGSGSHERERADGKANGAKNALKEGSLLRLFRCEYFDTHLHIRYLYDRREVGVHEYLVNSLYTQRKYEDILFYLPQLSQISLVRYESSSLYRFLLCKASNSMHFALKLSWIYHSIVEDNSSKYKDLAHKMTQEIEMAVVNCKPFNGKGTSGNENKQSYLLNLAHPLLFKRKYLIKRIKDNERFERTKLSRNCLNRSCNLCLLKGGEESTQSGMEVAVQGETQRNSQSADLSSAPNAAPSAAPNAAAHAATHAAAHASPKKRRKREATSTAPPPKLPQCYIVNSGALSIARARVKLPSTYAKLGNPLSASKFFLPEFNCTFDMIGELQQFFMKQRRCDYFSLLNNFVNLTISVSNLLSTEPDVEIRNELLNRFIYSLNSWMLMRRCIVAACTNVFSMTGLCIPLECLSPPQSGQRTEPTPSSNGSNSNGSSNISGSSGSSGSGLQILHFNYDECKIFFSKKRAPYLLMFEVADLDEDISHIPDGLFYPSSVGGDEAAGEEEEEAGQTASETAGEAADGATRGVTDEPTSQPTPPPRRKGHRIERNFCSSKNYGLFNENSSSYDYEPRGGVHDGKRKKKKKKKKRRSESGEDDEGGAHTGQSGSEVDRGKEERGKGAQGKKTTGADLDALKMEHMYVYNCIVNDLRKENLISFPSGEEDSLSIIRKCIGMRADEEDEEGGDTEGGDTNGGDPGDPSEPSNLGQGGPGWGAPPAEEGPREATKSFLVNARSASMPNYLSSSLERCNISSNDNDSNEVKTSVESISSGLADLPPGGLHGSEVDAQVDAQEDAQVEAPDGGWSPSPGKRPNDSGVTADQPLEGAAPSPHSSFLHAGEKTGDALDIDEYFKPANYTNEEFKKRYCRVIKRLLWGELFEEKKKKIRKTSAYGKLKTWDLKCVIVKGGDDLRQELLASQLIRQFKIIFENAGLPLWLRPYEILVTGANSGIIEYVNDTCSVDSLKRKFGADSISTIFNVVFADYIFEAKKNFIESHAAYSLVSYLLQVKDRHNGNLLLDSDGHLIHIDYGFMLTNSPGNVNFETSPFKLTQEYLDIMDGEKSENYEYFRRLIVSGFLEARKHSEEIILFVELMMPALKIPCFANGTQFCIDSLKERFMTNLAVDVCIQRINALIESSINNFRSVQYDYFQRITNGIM

| Structure (SMILES) | reduction in parasitaemia (P. berghei) | IC50 (PvPI4Kβ) | also measured |
| --- | --- | --- | --- |
| C[C@H]1[C@H](OC(=O)CCC(=O)O)O[C@@H]2O[C@@]3(C)CC[C@H]4[C@H](C)CC[C@@H]1[C@@]24OO3 [artesunate] | 99% |  |  |
| Nc1ncc(-c2ccc(C(=O)N3CCNCC3)cc2)nc1-c1ccc(C(F)(F)F)cc1 [UCT943] |  | < 5 nM | logPRR (Pf3D7 strain): 2.5 |
| CCN(CC)CCCC(C)Nc1ccnc2cc(Cl)ccc12 (stereo not shown) [chloroquine] | 99.9% |  |  |
| CC(C)n1nc(-c2ccc3oc(N)nc3c2)c2c(N)ncnc21 [sapanisertib] |  | < 5 nM |  |
| CN[C@@H]1C[C@H]2O[C@@](C)([C@@H]1OC)n1c3ccccc3c3c4c(c5c6ccccc6n2c5c31)C(=O)NC4 [staurosporine] |  |  | inhibition HsMAP4K4 (HsMAP4K4): nanomolar inhibition; inhibition HsMINK1 (HsMINK1): nanomolar inhibition |
